Experiments:
Mao-B [1] = assay: Mao-B protein levels by Western blot in differentiated SH-SY5Y cells; type: cell-based; settings: for Densitometric quantification Exp. 1 / Densitometric quantification Exp. 2 / Densitometric quantification Exp. 3: Mao-B Western blot band signal, Aza 625 nM, SAM 25 μM, Vit B6 5 μg/ml, Vit B12 7.5 μg/ml; for Densitometric quantification Exp. 1 / Densitometric quantification Exp. 2 / Densitometric quantification Exp. 3 / % MAO-B of untreated cells Exp. 1 / % MAO-B of untreated cells Exp. 2 / % MAO-B of untreated cells Exp. 3: differentiated SH-SY5Y cells treated Days 8 to 12; for % MAO-B of untreated cells Exp. 1 / % MAO-B of untreated cells Exp. 2 / % MAO-B of untreated cells Exp. 3: untreated set 100%; for % MAO-B of untreated cells Average: differentiated SH-SY5Y cells, average of the experiments
Protocol: The neuroblastoma cell line SH-SY5Y was seeded at 110,000 cell/6-well. Neuronal differentiation treatment was started on the next day (=Day 0) by addition of 10 μM retinoic acid every second day until Day 6. On Day 8 differentiation treatment was switched to 4 μM uridine (Ur), 5 μM 5-fluoro-2′-deoxyuridine FdUr), and 1 μM cytosine beta-D-arabinofuranoside (araC). During mitotic inhibitor addition (=Days 8 to 12) cells were left untreated or treated with 625 nM 5-aza-2′-deoxycytidine (Aza), 25 μM S-adenosylmethionine (SAM), 5 μg/ml vitamin B6 (Vit B6), 7.5 μg/ml vitamin B12 (Vit B12), or 5 μg/ml vitamin B6/7.5 μg/ml vitamin B12. On Day 12 cells were harvested. Cells were washed twice with chilled PBS, scraped off in PBS/protease inhibitors, and centrifuged at 15000×g at 4 C for 10 min. The pellet was reconstituted in 150 μl PBS/protease inhibitors and precipitated with 50 μl trichloroacetic acid/80 mMDTT for 1 hour at 4 C. After centrifugation at 15000×g at 4 C for 10 min, precipitated protein was washed four times with 0.6 ml acetone/20 mM DTT and stored at −80 C until analysis. The dried total protein pellet was reconstituted in 7M urea/2M thiourea/4% CHAPS buffer and the protein concentration was determined using the Coomassie Plus (Bradford) Protein Assay (Pierce, Thermo Scientific). Equal protein amounts were loaded onto an 11% SDS polyacrylamide gel and proteins were blotted onto nitrocellulose. Mao-B was detected using a polyclonal Goat anti-Mao-B antibody (sc18401, Santa Cruz) and DyLight 649 AffiniPureF(ab′)2 Fragment Donkey Anti-Goat IgGgamma (Jackson ImmunoResearch Laboratories, Inc.), and a Typhoon scanner (GE Healthcare Life Sciences). Results were analysed with the software ImageJ. The signals of the Mao-B bands of SAM treated and untreated differentiated SH-SY5Y cells were compared and the latter was set 100%.

platelet MAO activity = settings: LOAD patients, vitamin B12 therapy; cited from earlier work
Mao-B [2] = assay: MAO-B protein expression by Western blot in HepG2 cells, normalised against GAPDH and 14-3-3 gamma; type: cell-based; settings: 10 μM 5-aza-2-deoxycytidine for 1, 2, or 3 days; FIG. 3
Protocol: HepG2 cells were grown in DMEM low glucose/10% FBS and were treated with 10 μM 5-aza-2-deoxycytidine for 1, 2, or 3 days. Untreated HepG2 cells served as controls. Cells were scraped in precipitation buffer (PBS/25% trichloroacetic acid/20 mM DTT/protease inhibitors) at 4 C and proteins were precipitated for 1 hour at 4 C. Precipitated proteins were pelleted at 15000 rpm for 10 min (4 C) and washed 4 times with 700 μl acetone/20 mM DTT. Before analysis by SDS PAGE and Western blot, the precipitated samples were reconstituted in DIGE buffer/1% pH 4-7 ampholyte. Six parallel experiments were performed. […] Two normalisation compounds were used: GAPDH (glyceraldehyde 3-phosphate dehydrogenase) and 14-3-3 gamma (protein kinase C inhibitor protein 1). Each Mao-B band signal was divided by the respective GAPDH or 14-3-3 gamma band signal to achieve normalisation.
HepG2 cells were grown in DMEM low glucose/2% FBS and were treated with vitamin B6 (300 μg/ml) and vitamin B12 (74.4 μg/ml) for 1, 3, 4, 5 and 7 days. Untreated HepG2 cells served as controls. Cells were harvested and analysed by Western blot.

| Molecule | Densitometric quantification Exp. 1 (Mao-B [1]) | Densitometric quantification Exp. 2 (Mao-B [1]) | Densitometric quantification Exp. 3 (Mao-B [1]) | % MAO-B of untreated cells Exp. 1 (Mao-B [1]) [%] | % MAO-B of untreated cells Exp. 2 (Mao-B [1]) [%] | % MAO-B of untreated cells Exp. 3 (Mao-B [1]) [%] | % MAO-B of untreated cells Average (Mao-B [1]) [%] | platelet MAO activity (platelet MAO activity) | MAO-B protein expression in HepG2 cells (Mao-B [2]) |
| --- | --- | --- | --- | --- | --- | --- | --- | --- | --- |
| C[S+](CC[C@H](N)C(=O)O)C[C@H]1O[C@@H](n2cnc3c(N)ncnc32)[C@H](O)[C@@H]1O (stereo partly shown) [SAM, S-adenosylmethionine] | 2482.6 | 990.4 | 1006.8 | 60 | 89 | 90 | 80 |  |  |
| vitamin B6 [Vit B6] | 4087.1 | 1008.1 | 1004.8 | 99 | 90 | 90 | 93 |  |  |
| vitamin B12 [Vit B12] | 3823.5 | 857.8 | 695.3 | 93 | 77 | 62 | 77 | significantly reduced |  |
| Nc1ncn([C@H]2C[C@H](O)[C@@H](CO)O2)c(=O)n1 [Aza, 5-aza-2′-deoxycytidine] |  | 1116.9 | 973.5 |  | 100 | 87 | 94 |  | increased levels of MAO-B are expressed |
